From paper PMC8278147, “Synthesis of New 1H-1,2,3-Triazole Analogs in Aqueous Medium via “Click” Chemistry: A Novel Class of Potential Carbonic Anhydrase-II Inhibitors” (Frontiers in Chemistry, 2021)

Molecular target: T1, bovine carbonic anhydrase-II enzyme (Bos taurus, UniProt P00921)
T1 construct: In vitro experiment of bovine erythrocyte CA-II was conducted in HEPES-Tris buffer; from tissue; host or cells: bovine erythrocytes
Assay: In vitro carbonic anhydrase-II inhibition assay (p-nitrophenylacetate substrate)
Assay type: biochemical
Details: bovine erythrocyte CA-II, HEPES-Tris buffer pH 7.4, 25°C, substrate p-nitrophenylacetate 0.7 mM, triplicate
Experimental: In vitro experiment of bovine erythrocyte CA-II was conducted in HEPES-Tris buffer (20 mM) to maintain the pH 7.4. The purified was dissolved in HEPES-Tris buffer (0.1 mg/ml), and the reaction mixture was comprised of 140 μL of the HEPES-Tris buffer, 20 μL of the enzyme, and 20 μL of test compound (prepared in DMSO) and was incubated for 15 min at 25°C. After completion of the preincubation, the reaction was started by adding instantly the substrate p-nitrophenylacetate (P-NPA) at a concentration of 0.7 mM and prepared in methanol. To initiate the reaction, the 96-well plate was placed in a microplate reader and continuous product formation was monitored with a one-minute time interval for 30 min at 400 nm. The assay temperature was strictly controlled and kept at 25°C. All the reaction was conducted in triplicate, and the results are presented as mean.

T1 sequence (P00921 whole entry): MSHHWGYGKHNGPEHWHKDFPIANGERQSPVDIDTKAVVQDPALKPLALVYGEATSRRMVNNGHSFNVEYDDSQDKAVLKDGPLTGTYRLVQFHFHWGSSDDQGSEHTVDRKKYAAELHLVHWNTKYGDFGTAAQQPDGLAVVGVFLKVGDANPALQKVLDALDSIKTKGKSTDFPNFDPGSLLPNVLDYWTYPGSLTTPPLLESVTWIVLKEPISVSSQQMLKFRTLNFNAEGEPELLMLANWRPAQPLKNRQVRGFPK

- IC50: 13.8 ± 0.63 µM
SMILES: COc1cc(Br)ccc1O[C@H](C)Cn1cc(-c2ccc(N)cc2)nn1 [Compound 7b, (R)-4-(1-(2-(4-Bromo-2-methoxyphenoxy)propyl)-1H-1,2,3-triazol-4-yl)aniline]
